The assay has as its target T1, Intestinal Alpha-glucosidase type I (α-glucosidase).
T1 construct: gene MAL12; commercial enzyme (Sigma-Aldrich), no catalogue number
Nature of the assay: alpha-glucosidase inhibition assay. Conditions: positive control; 4-nitrophenyl β-d-glucopyranoside listed among reagents (beta anomer as printed); pH, temperature not given. Format: biochemical. An excerpt: alpha-glucosidase inhibition assay on Intestinal Alpha-glucosidase type I (α-glucosidase)

As for `C[C@H]1O[C@H](O[C@H]2[C@H](O)[C@@H](O)[C@@H](O[C@H]3[C@H](O)[C@@H](O)C(O)O[C@@H]3CO)O[C@@H]2CO)[C@H](O)[C@@H](O)[C@@H]1N[C@H]1C=C(CO)[C@@H](O)[C@H](O)[C@H]1O` (stereo partly shown) [acarbose], the “α-Glucosidase (IC50 mg/mL)” value amounted to 1.12 ± 0.08 mg/mL.

The record behind these values is article PMC8778445, “HPLC-MS Profiling, Antioxidant, Antimicrobial, Antidiabetic, and Cytotoxicity Activities of Arthrocnemum indicum (Willd.) Moq. Extracts” (Plants, 2022).
